{
  "source": "patent US20040038216A1",
  "about": "“Method for the structural determination of ligands bound to macromolecular targets by nuclear magnetic resonance” (priority 2002, published 2004)",
  "key": {"Bcl-xL [1]": {"target": "T1, Bcl-xL (Homo sapiens, UniProt Q07817, DEL45-84)", "T1 construct": "deletion mutant of Bcl-xL (that lacks the putative carboxy-terminal transmembrane region and residues 49-88) was used; His tag (C); made in house; host or cells: E. coli BL21(DE3)", "T1 sequence (Q07817 with tags, fused parts or gaps DEL45-84 limits assumed)": "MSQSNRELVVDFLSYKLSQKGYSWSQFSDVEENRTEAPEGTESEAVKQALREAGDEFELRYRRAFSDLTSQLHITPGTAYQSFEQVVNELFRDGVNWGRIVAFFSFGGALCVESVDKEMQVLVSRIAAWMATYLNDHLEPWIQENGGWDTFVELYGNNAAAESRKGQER", "test": "STD-NMR (saturation transfer difference) spectra on Bcl-xL/ligand complexes", "format": "binding", "experimental": "A sample of unlabeled Bcl-xL as well as samples of perdeuterated Bcl-xL that were selectively protonated at the specific amino acids Arg, Tyr, Leu, Ile, and Met were prepared in accordance with the procedures of Example 1. Samples of 200 uM 4-(4-fluorophenyl)benzoic acid (3, Array), [drawing 1]\n(§1) 500 uL of the ligand solution was transferred to each of 8 NMR tubes (Wilmad). The protein solutions were then added to the NMR tubes to a final protein concentration of 40 uM in the following manner: Sample 1: unlabeled Bcl-xL; Sample 2: U-^2H-Bcl-xL; Sample 3: U-^2H-{^1H-R}-Bcl-xL; Sample 4: U-^2H-{^1H-Y}-Bcl-xL; Sample 5: U-^2H-{^1H-L}-Bcl-xL; Sample 6: U-2H-{^1H-I}-Bcl-xL; Sample 7: U-^2H-{^1H-M}-Bcl-xL; Sample 8: No protein.\nSTD-NMR spectra (Mayer and Meyer, J. Am. Chem. Soc. 2001, 123, 6108-6117) were determined on each of the eight samples. All NMR experiments were performed at 300K on a Bruker Avance DRX500 system equipped with a CryoProbe. The pulse sequence for the ID STD-NMR spectra was identical to that used by Mayer and Meyer (2001) except that a CPMG T2-filter was used instead of a T1p-filter to remove background protein resonances. Subtraction of the on- and off-resonance spectra was performed internally and a WATERGATE sequence was used for suppression of the residual solvent signal. On-resonance irradiation of the protein was performed by using a train of Gauss-shaped pulses of 2.5 ms length separated by a 2.5 ms delay, and alternating on-resonance irradiation was applied at 0.8 and 3.0 ppm. Off-resonance irradiation was applied at −10.0 ppm. 280 shaped pulses were used in the pulse train, leading to a total saturation time of 1.4 s. All spectra were acquired with a 100 ms T2-filter, 1024 complex points, 1024 scans, a ^1H sweep width of 8333 Hz, and a total recycle time of 2.0 s.\nAll NMR spectra were processed and analyzed on Silicon Graphics computers using standard protocols well-known in the art. STD-NMR spectra for biaryl 3 in the presence of unlabeled Bcl-xL (Sample 1), U-^2H-Bcl-xL (Sample 2), and no protein are shown in FIG. 5. […] Therefore, the signal intensity for each resonance of the biaryl 3 in the presence of unlabeled and perdeuterated protein was taken as the maximum and minimum intensity, respectively, for the NOE in the presence of the selectively protonated samples. The intensity of the NOEs could then be calculated using the following equation, [formula]\nwhere I(norm) is the normalized intensity in the STD-NMR spectrum for a given biaryl resonance, and I(SL), I(^2H), and I(^1H) are the intensities of the resonance in the presence of the selectively protonated, perdeuterated, and unlabeled protein, respectively. The normalized NOE intensities can be visualized by simple subtraction of the STD-NMR spectrum of the ligand in the presence of deuterated protein from each of the selectively protonated samples. In these spectra, it is clearly seen that an arginine residue is in close contact with the benzoic acid portion of 3 (magnetization transfer to HA and HB/C), but not the fluorophenyl portion. It is also clear that a tyrosine and leucine residue is in contact with the fluorophenyl portion of 3 (magnetization transfer to HD and HB/C), but not the benzoic acid portion. Spectra shown in (E) and (F) indicate that no portion of the biaryl is in contact with any isoleucine or methionine residues.\nThese NOE intensities were then converted into distance restraints for use in structural calculations in the following manner. For any given amino acid type and ligand resonance, normalized NOE intensities less than 5% were treated as having no interaction. Therefore, distances between that ligand atom and all protons on all amino acids of that specific type were set at greater than 5 Å. For NOE intensities greater than 15%, ambiguous distance restraints were assigned. […]"}, "Bcl-xL [2]": {"target": "Bcl-xL (Homo sapiens, UniProt Q07817)", "sequence (Q07817 whole entry)": "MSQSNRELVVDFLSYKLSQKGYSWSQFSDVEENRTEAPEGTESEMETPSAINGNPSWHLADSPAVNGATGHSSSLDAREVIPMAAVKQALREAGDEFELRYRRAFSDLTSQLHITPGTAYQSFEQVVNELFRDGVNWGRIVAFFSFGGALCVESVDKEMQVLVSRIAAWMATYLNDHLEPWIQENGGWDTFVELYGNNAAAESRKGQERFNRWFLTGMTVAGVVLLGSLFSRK", "test": "NMR-based screening", "format": "binding", "conditions": "independently determined", "experimental": "as §1"}, "[3]": {"conditions": "ligand proton HA, Sample 1 Unlabeled Bcl-xL"}, "[4]": {"conditions": "ligand proton HA, Sample 2 U-2H-Bcl-xL"}, "[5]": {"conditions": "ligand proton HD, Sample 1 Unlabeled Bcl-xL"}, "[6]": {"conditions": "ligand proton HD, Sample 2 U-2H-Bcl-xL"}, "[7]": {"conditions": "ligand protons HB/HC, Sample 1 Unlabeled Bcl-xL"}, "[8]": {"conditions": "ligand protons HB/HC, Sample 2 U-2H-Bcl-xL"}},
  "note": "Marks after values point to notes of the source that are not given here.",
  "data": [
    {"compound": "O=C(O)c1ccc(-c2ccc(F)cc2)cc1", "note": "[biaryl 3, 4-(4-fluorophenyl)benzoic acid]", "values": [
      {"measurement": "Normalized NOE intensity", "setting": "Bcl-xL [1]; HA protons, in the presence of U-2H-{1H-Y}-Bcl-xL", "value": 3, "unit": "%"},
      {"measurement": "Normalized NOE intensity", "setting": "Bcl-xL [1]; HD protons, in the presence of U-2H-{1H-Y}-Bcl-xL", "value": 22, "unit": "%"},
      {"measurement": "Distance restraint derived from the NOE intensity data", "setting": "Bcl-xL [1]; ligand proton HA to arginine protons, Sample 3 U-2H-{1H-R}-Bcl-xL", "value": "<4^a Å"},
      {"measurement": "Distance restraint derived from the NOE intensity data", "setting": "Bcl-xL [1]; ligand proton HA to isoleucine protons, Sample 6 U-2H-{1H-I}-Bcl-xL", "value": ">5", "unit": "Å"},
      {"measurement": "Distance restraint derived from the NOE intensity data", "setting": "Bcl-xL [1]; ligand proton HA to methionine protons, Sample 7 U-2H-{1H-M}-Bcl-xL", "value": ">5", "unit": "Å"},
      {"measurement": "Distance restraint derived from the NOE intensity data", "setting": "Bcl-xL [1]; ligand proton HA to tyrosine protons, Sample 4 U-2H-{1H-Y}-Bcl-xL", "value": ">5", "unit": "Å"},
      {"measurement": "Actual NOE intensity", "setting": "Bcl-xL [1]; [3]", "value": "(175)"},
      {"measurement": "Normalized NOE intensity", "setting": "Bcl-xL [1]; [3]", "value": "100^a"},
      {"measurement": "Actual NOE intensity", "setting": "Bcl-xL [1]; [4]", "value": "(17)"},
      {"measurement": "Normalized NOE intensity", "setting": "Bcl-xL [1]; [4]", "value": 0},
      {"measurement": "Actual NOE intensity", "setting": "Bcl-xL [1]; ligand proton HA, Sample 3 U-2H-{1H-R}-Bcl-xL", "value": "(57)"},
      {"measurement": "Actual NOE intensity", "setting": "Bcl-xL [1]; ligand proton HA, Sample 4 U-2H-{1H-Y}-Bcl-xL", "value": "(22)"},
      {"measurement": "Actual NOE intensity", "setting": "Bcl-xL [1]; ligand proton HA, Sample 5 U-2H-{1H-L}-Bcl-xL", "value": "(28)"},
      {"measurement": "Actual NOE intensity", "setting": "Bcl-xL [1]; ligand proton HA, Sample 6 U-2H-{1H-I}-Bcl-xL", "value": "(18)"},
      {"measurement": "Actual NOE intensity", "setting": "Bcl-xL [1]; ligand proton HA, Sample 7 U-2H-{1H-M}-Bcl-xL", "value": "(23)"},
      {"measurement": "Distance restraint derived from the NOE intensity data", "setting": "Bcl-xL [1]; ligand proton HD to leucine protons, Sample 5 U-2H-{1H-L}-Bcl-xL", "value": "<3", "unit": "Å"},
      {"measurement": "Actual NOE intensity", "setting": "Bcl-xL [1]; [5]", "value": "(167)"},
      {"measurement": "Normalized NOE intensity", "setting": "Bcl-xL [1]; [5]", "value": 100},
      {"measurement": "Actual NOE intensity", "setting": "Bcl-xL [1]; [6]", "value": "(28)"},
      {"measurement": "Normalized NOE intensity", "setting": "Bcl-xL [1]; [6]", "value": 0},
      {"measurement": "Actual NOE intensity", "setting": "Bcl-xL [1]; ligand proton HD, Sample 3 U-2H-{1H-R}-Bcl-xL", "value": "(40)"},
      {"measurement": "Actual NOE intensity", "setting": "Bcl-xL [1]; ligand proton HD, Sample 4 U-2H-{1H-Y}-Bcl-xL", "value": "(59)"},
      {"measurement": "Actual NOE intensity", "setting": "Bcl-xL [1]; ligand proton HD, Sample 5 U-2H-{1H-L}-Bcl-xL", "value": "(93)"},
      {"measurement": "Actual NOE intensity", "setting": "Bcl-xL [1]; ligand proton HD, Sample 6 U-2H-{1H-I}-Bcl-xL", "value": "(40)"},
      {"measurement": "Actual NOE intensity", "setting": "Bcl-xL [1]; ligand proton HD, Sample 7 U-2H-{1H-M}-Bcl-xL", "value": "(45)"},
      {"measurement": "Distance restraint derived from the NOE intensity data", "setting": "Bcl-xL [1]; ligand protons HB/HC to arginine protons, Sample 3 U-2H-{1H-R}-Bcl-xL", "value": "<5", "unit": "Å"},
      {"measurement": "Distance restraint derived from the NOE intensity data", "setting": "Bcl-xL [1]; ligand protons HB/HC to isoleucine protons, Sample 6 U-2H-{1H-I}-Bcl-xL", "value": ">5", "unit": "Å"},
      {"measurement": "Distance restraint derived from the NOE intensity data", "setting": "Bcl-xL [1]; ligand protons HB/HC to leucine protons, Sample 5 U-2H-{1H-L}-Bcl-xL", "value": "<5", "unit": "Å"},
      {"measurement": "Distance restraint derived from the NOE intensity data", "setting": "Bcl-xL [1]; ligand protons HB/HC to methionine protons, Sample 7 U-2H-{1H-M}-Bcl-xL", "value": ">5", "unit": "Å"},
      {"measurement": "Actual NOE intensity", "setting": "Bcl-xL [1]; [7]", "value": "(200)"},
      {"measurement": "Normalized NOE intensity", "setting": "Bcl-xL [1]; [7]", "value": 100},
      {"measurement": "Actual NOE intensity", "setting": "Bcl-xL [1]; [8]", "value": "(32)"},
      {"measurement": "Normalized NOE intensity", "setting": "Bcl-xL [1]; [8]", "value": 0},
      {"measurement": "Actual NOE intensity", "setting": "Bcl-xL [1]; ligand protons HB/HC, Sample 3 U-2H-{1H-R}-Bcl-xL", "value": "(70)"},
      {"measurement": "Actual NOE intensity", "setting": "Bcl-xL [1]; ligand protons HB/HC, Sample 4 U-2H-{1H-Y}-Bcl-xL", "value": "(49)"},
      {"measurement": "Actual NOE intensity", "setting": "Bcl-xL [1]; ligand protons HB/HC, Sample 5 U-2H-{1H-L}-Bcl-xL", "value": "(71)"},
      {"measurement": "Actual NOE intensity", "setting": "Bcl-xL [1]; ligand protons HB/HC, Sample 6 U-2H-{1H-I}-Bcl-xL", "value": "(30)"},
      {"measurement": "Actual NOE intensity", "setting": "Bcl-xL [1]; ligand protons HB/HC, Sample 7 U-2H-{1H-M}-Bcl-xL", "value": "(30)"},
      {"measurement": "binding to Bcl-xL (NMR-based screening)", "setting": "Bcl-xL [2]", "value": "ligand for Bcl-xL"}
    ]}
  ]
}
